# According to ChEMBL document CHEMBL2396528, “Synthesis of new conjugated coumarin-benzimidazole hybrids and their anticancer activity” (2013):
# Active and inactive are the calls of the source. The rule behind the calls is not given here.
# Columns and labels:
# Type in all cases: functional
# T47D = assay: Cytotoxicity against human T47D cells assessed as growth inhibition at 10 uM after 48 hrs by SRB assay relative to control; conditions: read-out: GI
# MCF7 = assay: Cytotoxicity against human MCF7 cells assessed as growth inhibition at 10 uM after 48 hrs by SRB assay relative to control; conditions: MCF7, 48 h, read-out: GI
# Malme-3M = assay: Cytotoxicity against human MALME-3M cells assessed as growth inhibition at 10 uM after 48 hrs by SRB assay relative to control; conditions: read-out: GI
# MDA-MB-468 = assay: Cytotoxicity against human MDA-MB-468 cells assessed as growth inhibition at 10 uM after 48 hrs by SRB assay relative to control; conditions: MDA-MB-468, 48 h, read-out: GI
# IGROV-1 = assay: Cytotoxicity against human IGROV1 cells assessed as growth inhibition at 10 uM after 48 hrs by SRB assay relative to control; conditions: IGROV-1, 48 h, read-out: GI
# SK-MEL-2 = assay: Cytotoxicity against human SK-MEL-2 cells assessed as growth inhibition at 10 uM after 48 hrs by SRB assay relative to control; conditions: SK-MEL-2, 48 h, read-out: GI
# HOP-62 = assay: Cytotoxicity against human HOP62 cells assessed as growth inhibition at 10 uM after 48 hrs by SRB assay relative to control; conditions: HOP-62, 48 h, read-out: GI
# A549 = assay: Cytotoxicity against human A549 cells assessed as growth inhibition at 10 uM after 48 hrs by SRB assay relative to control; conditions: A549, 48 h, read-out: GI
# SK-MEL-28 = assay: Cytotoxicity against human SK-MEL-28 cells assessed as growth inhibition at 10 uM after 48 hrs by SRB assay relative to control; conditions: SK-MEL-28, 48 h, read-out: GI
# CAKI-1 = assay: Cytotoxicity against human Caki1 cells assessed as growth inhibition at 10 uM after 48 hrs by SRB assay relative to control; conditions: CAKI-1, 48 h, read-out: GI
# NCI-H322M = assay: Cytotoxicity against human NCI-H322M cells assessed as growth inhibition at 10 uM after 48 hrs by SRB assay relative to control; conditions: read-out: GI
# SK-MEL-5 = assay: Cytotoxicity against human SK-MEL-5 cells assessed as growth inhibition at 10 uM after 48 hrs by SRB assay relative to control; conditions: SK-MEL-5, 48 h, read-out: GI
# LOX IMVI = assay: Cytotoxicity against human LOXIMVI cells assessed as growth inhibition at 10 uM after 48 hrs by SRB assay relative to control; conditions: read-out: GI
# UACC-257 = assay: Cytotoxicity against human UACC257 cells assessed as growth inhibition at 10 uM after 48 hrs by SRB assay relative to control; conditions: UACC-257, 48 h, read-out: GI
# Hs-578T = assay: Cytotoxicity against human Hs578T cells assessed as growth inhibition at 10 uM after 48 hrs by SRB assay relative to control; conditions: for inhibition of growth at 10 µM: read-out: GI
# [1] = Cytotoxicity against human NCI-ADR-RES cells assessed as growth inhibition at 10 uM after 48 hrs by SRB assay relative to control; conditions: read-out: GI
# OVCAR-8 = assay: Cytotoxicity against human OVCAR8 cells assessed as growth inhibition at 10 uM after 48 hrs by SRB assay relative to control; conditions: OVCAR-8, 48 h, read-out: GI
# HOP-92 = assay: Cytotoxicity against human HOP92 cells assessed as growth inhibition at 10 uM after 48 hrs by SRB assay relative to control; conditions: HOP-92, 48 h, read-out: GI
# OVCAR-3 = assay: Cytotoxicity against human OVCAR3 cells assessed as growth inhibition at 10 uM after 48 hrs by SRB assay relative to control; conditions: OVCAR-3, 48 h, read-out: GI
# SNB-75 = assay: Cytotoxicity against human SNB75 cells assessed as growth inhibition at 10 uM after 48 hrs by SRB assay relative to control; conditions: SNB-75, 48 h, read-out: GI
# MOLT-4 = assay: Cytotoxicity against human MOLT4 cells assessed as growth inhibition at 10 uM after 48 hrs by SRB assay relative to control; conditions: MOLT-4, 48 h, read-out: GI
# NCI-H23 = assay: Cytotoxicity against human NCI-H23 cells assessed as growth inhibition at 10 uM after 48 hrs by SRB assay relative to control; conditions: NCI-H23, 48 h, read-out: GI
# SF-295 = assay: Cytotoxicity against human SF295 cells assessed as growth inhibition at 10 uM after 48 hrs by SRB assay relative to control; conditions: SF-295, 48 h, read-out: GI
# A498 = assay: Cytotoxicity against human A498 cells assessed as growth inhibition at 10 uM after 48 hrs by SRB assay relative to control; conditions: for inhibition of growth at 10 µM: A498, 48 h, read-out: GI
# SF-539 = assay: Cytotoxicity against human SF539 cells assessed as growth inhibition at 10 uM after 48 hrs by SRB assay relative to control; conditions: for inhibition of growth at 10 µM: SF-539, 48 h, read-out: GI
# CCRF-CEM = assay: Cytotoxicity against human CCRF-CEM cells assessed as growth inhibition at 10 uM after 48 hrs by SRB assay relative to control; conditions: read-out: GI
# HCT-15 = assay: Cytotoxicity against human HCT15 cells assessed as growth inhibition at 10 uM after 48 hrs by SRB assay relative to control; conditions: HCT-15, 48 h, read-out: GI
# SK-OV-3 = assay: Cytotoxicity against human SKOV3 cells assessed as growth inhibition at 10 uM after 48 hrs by SRB assay relative to control; conditions: SK-OV-3, 48 h, read-out: GI
# SR = assay: Cytotoxicity against human SR cells assessed as growth inhibition at 10 uM after 48 hrs by SRB assay relative to control; conditions: read-out: GI
# PC-3 = assay: Cytotoxicity against human PC3 cells assessed as growth inhibition at 10 uM after 48 hrs by SRB assay relative to control; conditions: PC-3, 48 h, read-out: GI
# M14 = assay: Cytotoxicity against human M14 cells assessed as growth inhibition at 10 uM after 48 hrs by SRB assay relative to control; conditions: M14, 48 h, read-out: GI
# HCT-116 = assay: Cytotoxicity against human HCT116 cells assessed as growth inhibition at 10 uM after 48 hrs by SRB assay relative to control; conditions: HCT-116, 48 h, read-out: GI
# NCI-H522 = assay: Cytotoxicity against human NCI-H522 cells assessed as growth inhibition at 10 uM after 48 hrs by SRB assay relative to control; conditions: NCI-H522, 48 h, read-out: GI
# SF-268 = assay: Cytotoxicity against human SF268 cells assessed as growth inhibition at 10 uM after 48 hrs by SRB assay relative to control; conditions: SF-268, 48 h, read-out: GI
# SW-620 = assay: Cytotoxicity against human SW620 cells assessed as growth inhibition at 10 uM after 48 hrs by SRB assay relative to control; conditions: SW-620, 48 h, read-out: GI
Compound,inhibition of growth at 10 µM (T47D) [%],inhibition of growth at 10 µM (MCF7) [%],inhibition of growth at 10 µM (Malme-3M) [%],inhibition of growth at 10 µM (IGROV-1) [%],inhibition of growth at 10 µM (SK-MEL-2) [%],inhibition of growth at 10 µM (HOP-62) [%],inhibition of growth at 10 µM (A549) [%],inhibition of growth at 10 µM (SK-MEL-28) [%],inhibition of growth at 10 µM (CAKI-1) [%],inhibition of growth at 10 µM (NCI-H322M) [%],inhibition of growth at 10 µM (LOX IMVI) [%],inhibition of growth at 10 µM (UACC-257) [%],inhibition of growth at 10 µM [1] [%],inhibition of growth at 10 µM (HOP-92) [%],inhibition of growth at 10 µM (OVCAR-3) [%],inhibition of growth at 10 µM (SNB-75) [%],inhibition of growth at 10 µM (MOLT-4) [%],inhibition of growth at 10 µM (NCI-H23) [%],inhibition of growth at 10 µM (SF-295) [%],inhibition of growth at 10 µM (CCRF-CEM) [%],further results
O=c1oc2cc(Br)ccc2cc1-c1nc2ccccc2[nH]1,28.4,30,< 20,< 20,< 20,< 20,< 20,< 20,< 20,< 20,< 20,< 20,< 20,20.1,< 20,22.9,< 20,< 20,< 20,< 20,inhibition of growth at 10 µM (MDA-MB-468): < 20%; inhibition of growth at 10 µM (SK-MEL-5): < 20%; inhibition of growth at 10 µM (Hs-578T): 25.1%; inhibition of growth at 10 µM (OVCAR-8): < 20%; inhibition of growth at 10 µM (A498): < 20%; inhibition of growth at 10 µM (SF-539): < 20%; inhibition of growth at 10 µM (HCT-15): < 20%; inhibition of growth at 10 µM (SK-OV-3): < 20%; inhibition of growth at 10 µM (SR): 21.5%; inhibition of growth at 10 µM (PC-3): < 20%; inhibition of growth at 10 µM (M14): < 20%; inhibition of growth at 10 µM (HCT-116): < 20%; inhibition of growth at 10 µM (NCI-H522): 20.6%; inhibition of growth at 10 µM (SF-268): < 20%; inhibition of growth at 10 µM (SW-620): < 20%
O=c1oc2cc(NCCO)ccc2cc1-c1nc2ccccc2[nH]1,70.7,62.1,29.8,24.5,< 20,24.8,< 20,< 20,22.4,29.7,54.3,28,23.7,< 20,32.8,< 20,38,32.9,24.5,72.5,inhibition of growth at 10 µM (MDA-MB-468): 48.4%; inhibition of growth at 10 µM (SK-MEL-5): 35.8%; inhibition of growth at 10 µM (Hs-578T): < 20%; inhibition of growth at 10 µM (OVCAR-8): 31.4%; inhibition of growth at 10 µM (A498): < 20%; inhibition of growth at 10 µM (SF-539): 25.9%; inhibition of growth at 10 µM (HCT-15): 72.7%; inhibition of growth at 10 µM (SK-OV-3): < 20%; inhibition of growth at 10 µM (SR): < 20%; inhibition of growth at 10 µM (PC-3): 56.7%; inhibition of growth at 10 µM (M14): 25.4%; inhibition of growth at 10 µM (HCT-116): 62.2%; inhibition of growth at 10 µM (NCI-H522): 23.7%; inhibition of growth at 10 µM (SF-268): 26.1%; inhibition of growth at 10 µM (SW-620): 21.4%
CN1CCN(c2ccc3cc(-c4nc5ccccc5[nH]4)c(=O)oc3c2)CC1,23.1,26.3,< 20,20.1,< 20,< 20,< 20,< 20,< 20,< 20,< 20,25.3,< 20,41.1,< 20,< 20,< 20,25.5,< 20,26.5,inhibition of growth at 10 µM (MDA-MB-468): 31.7%; inhibition of growth at 10 µM (SK-MEL-5): < 20%; inhibition of growth at 10 µM (Hs-578T): < 20%; inhibition of growth at 10 µM (OVCAR-8): < 20%; inhibition of growth at 10 µM (A498): < 20%; inhibition of growth at 10 µM (SF-539): < 20%; inhibition of growth at 10 µM (HCT-15): < 20%; inhibition of growth at 10 µM (SK-OV-3): < 20%; inhibition of growth at 10 µM (SR): < 20%; inhibition of growth at 10 µM (PC-3): < 20%; inhibition of growth at 10 µM (M14): < 20%; inhibition of growth at 10 µM (HCT-116): < 20%; inhibition of growth at 10 µM (NCI-H522): < 20%; inhibition of growth at 10 µM (SF-268): < 20%; inhibition of growth at 10 µM (SW-620): < 20%
O=c1[nH]cc(F)c(=O)[nH]1 [FLUOROURACIL],56.7,11.5,58.2,51.2,95.5,47.8,34.2,19.5,39.4,59.5,30.4,33.7,47.6,50.6,47.4,65.9,43.1,39,69,57.1,growth inhibition (GI) (Hs-578T): Active; growth inhibition (GI) (A498): Active; growth inhibition (GI) (SF-539): Active; inhibition of growth at 10 µM (HCT-15): 26.5%; inhibition of growth at 10 µM (SK-OV-3): 77.5%; inhibition of growth at 10 µM (SR): 24.8%; inhibition of growth at 10 µM (PC-3): 58.2%; inhibition of growth at 10 µM (HCT-116): 17.8%; inhibition of growth at 10 µM (NCI-H522): 58%; inhibition of growth at 10 µM (SF-268): 59%; inhibition of growth at 10 µM (SW-620): < 20%
O=c1oc2cc(NCCN3CCOCC3)ccc2cc1-c1nc2ccccc2[nH]1,< 20,< 20,< 20,< 20,< 20,< 20,< 20,< 20,< 20,< 20,< 20,< 20,< 20,23.3,< 20,22.9,< 20,< 20,< 20,< 20,inhibition of growth at 10 µM (MDA-MB-468): < 20%; inhibition of growth at 10 µM (SK-MEL-5): < 20%; inhibition of growth at 10 µM (Hs-578T): < 20%; inhibition of growth at 10 µM (OVCAR-8): < 20%; inhibition of growth at 10 µM (A498): < 20%; inhibition of growth at 10 µM (SF-539): < 20%; inhibition of growth at 10 µM (HCT-15): < 20%; inhibition of growth at 10 µM (SK-OV-3): < 20%; inhibition of growth at 10 µM (PC-3): < 20%; inhibition of growth at 10 µM (M14): < 20%; inhibition of growth at 10 µM (HCT-116): < 20%; inhibition of growth at 10 µM (NCI-H522): < 20%; inhibition of growth at 10 µM (SF-268): < 20%; inhibition of growth at 10 µM (SW-620): < 20%
